In PubChem BioAssay AID1963974 (Molecular Pharmacology Branch, DTP, NCI, 2024):

Test system: 648629-189-R-J1-PDC spheroids with HUVEC/MSC, viability
Assay: Anticancer human tumor 648629-189-R-J1-PDC patient-derived bladder carcinoma cell line growth inhibition [PI3K]
Settings: for IC50: curve of first compound; for viability, T/C: stronger effect = lower value
How it was run: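 High-throughput combination screen: PI3K inhibitors crossed with targeted small molecules on complex spheroids of tumor cells, HUVEC and MSCs at 37 degrees C, 5% CO2. Top concentration was at or near clinical Cmax (otherwise 10 microM), with half-log decrements.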

[1] = second compound 0.0316 µM, first compound 0.0316 µM
[2] = second compound 0.0316 µM, first compound 0.1 µM
[3] = second compound 0.1 µM, first compound 0.0316 µM
[4] = second compound 0.1 µM, first compound 0.1 µM
[5] = second compound 0.316 µM, first compound 0.0316 µM
[6] = second compound 0.316 µM, first compound 0.1 µM
[7] = second compound 1 µM, first compound 0.0316 µM
[8] = second compound 1 µM, first compound 0.1 µM
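Note: spheroids exposed to agents for seven days before reading.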
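Throughout, for viability, T/C: percent of vehicle control luminescence where 100% = DMSO treated spheroids.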

C#Cc1c(F)ccc2cc(O)cc(-c3ncc4c(N5CC6CCC(C5)N6)nc(OCC56CCCN5CC(F)C6)nc4c3F)c12 (centres undefined) + Cc1nc(NC(=O)N2CCCC2C(N)=O)sc1-c1ccnc(C(C)(C)C(F)(F)F)c1
IC50 (second compound 0.0316 µM): > 10000 nM
IC50 (second compound 0.1 µM): > 10000 nM
IC50 (second compound 0.316 µM): > 10000 nM
IC50 (second compound 1 µM): > 10000 nM
IC50 (second compound 3.16 µM): > 10000 nM
IC50 (second compound 10 µM): < 31.6 nM
viability, T/C [1]: 100%
viability, T/C [2]: 103%
viability, T/C (second compound 0.0316 µM, first compound 0.316 µM): 103%
viability, T/C (second compound 0.0316 µM, first compound 1 µM): 99.6%
viability, T/C (second compound 0.0316 µM, first compound 3.16 µM): 89.3%
viability, T/C (second compound 0.0316 µM, first compound 10 µM): 91.3%
viability, T/C [3]: 101%
viability, T/C [4]: 96.8%
viability, T/C (second compound 0.1 µM, first compound 0.316 µM): 97.5%
viability, T/C (second compound 0.1 µM, first compound 1 µM): 87.4%
viability, T/C (second compound 0.1 µM, first compound 3.16 µM): 95.1%
viability, T/C (second compound 0.1 µM, first compound 10 µM): 91.4%
viability, T/C [5]: 90.7%
viability, T/C [6]: 88.1%
viability, T/C (second compound 0.316 µM, first compound 0.316 µM): 87%
viability, T/C (second compound 0.316 µM, first compound 1 µM): 86.1%
viability, T/C (second compound 0.316 µM, first compound 3.16 µM): 80.4%
viability, T/C (second compound 0.316 µM, first compound 10 µM): 79.5%
viability, T/C [7]: 77.9%
viability, T/C [8]: 77.4%
viability, T/C (second compound 1 µM, first compound 0.316 µM): 77%
viability, T/C (second compound 1 µM, first compound 1 µM): 72.4%
viability, T/C (second compound 1 µM, first compound 3.16 µM): 68.9%
viability, T/C (second compound 1 µM, first compound 10 µM): 70.5%
viability, T/C (second compound 3.16 µM, first compound 0.0316 µM): 52.7%
viability, T/C (second compound 3.16 µM, first compound 0.1 µM): 56.1%
viability, T/C (second compound 3.16 µM, first compound 0.316 µM): 55%
viability, T/C (second compound 3.16 µM, first compound 1 µM): 52.7%
viability, T/C (second compound 3.16 µM, first compound 3.16 µM): 50.6%
viability, T/C (second compound 3.16 µM, first compound 10 µM): 54.9%
viability, T/C (second compound 10 µM, first compound 0.0316 µM): 36.3%
viability, T/C (second compound 10 µM, first compound 0.1 µM): 34.2%
viability, T/C (second compound 10 µM, first compound 0.316 µM): 34.5%
viability, T/C (second compound 10 µM, first compound 1 µM): 34.5%
viability, T/C (second compound 10 µM, first compound 3.16 µM): 31.2%
viability, T/C (second compound 10 µM, first compound 10 µM): 5.29%

Cn1ncnc1[C@H]1c2n[nH]c(=O)c3cc(F)cc(c23)N[C@@H]1c1ccc(F)cc1 + COc1c(OCCCN2CCOCC2)ccc2c3n(c(=NC(=O)c4cnc(N)nc4)nc12)CCN3
IC50 (second compound 0.00316 µM): > 100 nM
IC50 (second compound 0.01 µM): > 100 nM
IC50 (second compound 0.0316 µM): > 100 nM
IC50 (second compound 0.1 µM): 32.2 nM
IC50 (second compound 0.316 µM): < 0.316 nM
IC50 (second compound 1 µM): < 0.316 nM
viability, T/C (second compound 0.00316 µM, first compound 0.000316 µM): 100%
viability, T/C (second compound 0.00316 µM, first compound 0.001 µM): 92.2%
viability, T/C (second compound 0.00316 µM, first compound 0.00316 µM): 106%
viability, T/C (second compound 0.00316 µM, first compound 0.01 µM): 88.5%
viability, T/C (second compound 0.00316 µM, first compound 0.0316 µM): 83.4%
viability, T/C (second compound 0.00316 µM, first compound 0.1 µM): 59.3%
viability, T/C (second compound 0.01 µM, first compound 0.000316 µM): 92.3%
viability, T/C (second compound 0.01 µM, first compound 0.001 µM): 92.1%
viability, T/C (second compound 0.01 µM, first compound 0.00316 µM): 88.7%
viability, T/C (second compound 0.01 µM, first compound 0.01 µM): 93.6%
viability, T/C (second compound 0.01 µM, first compound 0.0316 µM): 86.5%
viability, T/C (second compound 0.01 µM, first compound 0.1 µM): 60.6%
viability, T/C (second compound 0.0316 µM, first compound 0.000316 µM): 88.5%
viability, T/C (second compound 0.0316 µM, first compound 0.001 µM): 93.3%
viability, T/C (second compound 0.0316 µM, first compound 0.00316 µM): 85.4%
viability, T/C (second compound 0.0316 µM, first compound 0.01 µM): 73.5%
viability, T/C [1]: 65.6%
viability, T/C [2]: 55.3%
viability, T/C (second compound 0.1 µM, first compound 0.000316 µM): 66.7%
viability, T/C (second compound 0.1 µM, first compound 0.001 µM): 60.7%
viability, T/C (second compound 0.1 µM, first compound 0.00316 µM): 57.5%
viability, T/C (second compound 0.1 µM, first compound 0.01 µM): 57.2%
viability, T/C [3]: 51.8%
viability, T/C [4]: 41%
viability, T/C (second compound 0.316 µM, first compound 0.000316 µM): 20.3%
viability, T/C (second compound 0.316 µM, first compound 0.001 µM): 19.2%
viability, T/C (second compound 0.316 µM, first compound 0.00316 µM): 18.7%
viability, T/C (second compound 0.316 µM, first compound 0.01 µM): 16.4%
viability, T/C [5]: 20%
viability, T/C [6]: 15.4%
viability, T/C (second compound 1 µM, first compound 0.000316 µM): 4.4%
viability, T/C (second compound 1 µM, first compound 0.001 µM): 3.64%
viability, T/C (second compound 1 µM, first compound 0.00316 µM): 3.49%
viability, T/C (second compound 1 µM, first compound 0.01 µM): 3.59%
viability, T/C [7]: 3.84%
viability, T/C [8]: 2.43%
